Results from US6737383B1, “Herbicidal oxadiazolidines” (priority 1999, dated 2004).

Key:
[1] = test system: surinam grass; assay: Test B pre/postemergence surinam grass; assay type: in vivo, Brachiaria decumbens
How it was run: (§1)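 Herbicidal effect was estimated by eye on a ten-point control scale after plants spent twelve to sixteen days in a greenhouse following soil or foliar treatment. Foliar sprays targeted plants at one to four leaves; all doses were formulated in a non-phytotoxic solvent with surfactant.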

[2] = test system: cocklebur; assay: Test B pre/postemergence cocklebur; assay type: in vivo, Xanthium strumarium
How it was run: as §1

[3] = test system: corn; assay: Test B pre/postemergence corn; assay type: in vivo, Zea mays
How it was run: as §1

[4] = test system: crabgrass; assay: Test B pre/postemergence crabgrass; assay type: in vivo, Digitaria sanguinalis
How it was run: as §1

[5] = test system: giant foxtail; assay: Test B pre/postemergence giant foxtail; assay type: in vivo, Setaria faberii
How it was run: as §1

[6] = test system: morningglory; assay: Test B pre/postemergence morningglory; assay type: in vivo, Ipomoea hederacea
How it was run: as §1

[7] = test system: pigweed; assay: Test B pre/postemergence pigweed; assay type: in vivo, Amaranthus retroflexus
How it was run: as §1

[8] = test system: rape; assay: Test B pre/postemergence rape; assay type: in vivo, Brassica napus
How it was run: as §1

[9] = test system: soybean; assay: Test B pre/postemergence soybean; assay type: in vivo, Glycine max
How it was run: as §1

[10] = test system: sugar beet; assay: Test B pre/postemergence sugar beet; assay type: in vivo, Beta vulgaris
How it was run: as §1

[11] = test system: wild oat; assay: Test B pre/postemergence wild oat; assay type: in vivo, Avena fatua
How it was run: as §1

[12] = test system: purple nutsedge; assay: Test B pre/postemergence purple nutsedge; assay type: in vivo, Cyperus rotundus
How it was run: as §1

[13] = test system: rice; assay: Test B flood test rice; assay type: in vivo, Oryza sativa
How it was run: (§2)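 Plants were grown to the 2-leaf stage before treatment with test chemical, then held in a greenhouse for twelve to sixteen days. Injury was visually rated against untreated controls on a 0–10 scale, where 0 is no effect and 10 is complete control.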

[14] = test system: smallflower flatsedge; assay: Test B flood test smallflower flatsedge; assay type: in vivo, Cyperus difformis
How it was run: as §2

[15] = test system: duck salad; assay: Test B flood test duck salad; assay type: in vivo, Heteranthera limosa
How it was run: as §2

[16] = test system: bamyardgrass; assay: Test B flood test barnyardgrass; assay type: in vivo, Echinochloa crus-galli
How it was run: as §2

[17] = Postemergence, Rate 62 g/ha, scale 0 to 10, 0 is no effect, 10 is complete control
[18] = Postemergence, Rate 250 g/ha, scale 0 to 10, 0 no effect, 10 complete control
[19] = Preemergence, Rate 62 g/ha, scale 0 to 10 (0 no effect, 10 complete control)
[20] = Preemergence, Rate 125 g/ha, scale 0 to 10 (0 no effect, 10 complete control)
[21] = Preemergence, Rate 250 g/ha, scale of 0 to 10 where 0 is no effect and 10 is complete control
[22] = Preemergence, Rate 500 g/ha, scale 0 (no effect) to 10 (complete control)
[23] = Rate 125 g/ha, Postemergence, scale 0 to 10, 0 no effect, 10 complete control
[24] = Rate 500 g/ha, Postemergence, scale 0 to 10, 0 no effect, 10 complete control
[25] = Rate 125 g/ha, Postemergence section (flood test species), scale 0 to 10, 0 no effect, 10 complete control
[26] = Rate 500 g/ha, listed under Postemergence (flood test species), scale 0 to 10, 0 no effect, 10 complete control
[27] = flood test, listed under Postemergence, Rate 250 g/ha, scale 0 to 10, 0 no effect, 10 complete control

Cc1ccccc1Cn1c(=O)on(C(=O)N(C)c2ccccc2)c1=O [Compound 85]
0: B. signalgrass plant response rating [1, 17] | B. signalgrass plant response rating [1, 18] | B. signalgrass plant response rating [1, 19] | Plant response rating, B. signalgrass [1, 20] | Plant response rating, B. signalgrass [1, 21] | B. signalgrass plant response rating [1, 22] | B. signalgrass plant response rating [1, 23] | B. signalgrass plant response rating ([1]; Rate 500 g/ha, Postemergence, scale of 0 to 10 where 0 is no effect and 10 is complete control) | Cocklebur plant response rating [2, 17] | Cocklebur plant response rating [2, 18] | Cocklebur plant response rating [2, 19] | Plant response rating, Cocklebur [2, 20] | Plant response rating, Cocklebur [2, 21] | Cocklebur plant response rating [2, 22] | Cocklebur plant response rating [2, 23] | Cocklebur plant response rating [2, 24] | Corn plant response rating [3, 17] | Corn plant response rating [3, 18] | Corn plant response rating [3, 19] | Plant response rating, Corn [3, 20] | Plant response rating, Corn [3, 21] | Corn plant response rating [3, 22] | Corn plant response rating [3, 23] | Corn plant response rating [3, 24] | Crabgrass plant response rating [4, 17] | Crabgrass plant response rating [4, 18] | Crabgrass plant response rating [4, 19] | Plant response rating, Crabgrass [4, 20] | Plant response rating, Crabgrass [4, 21] | Crabgrass plant response rating [4, 22] | Crabgrass plant response rating [4, 23] | Crabgrass plant response rating [4, 24] | Giant foxtail plant response rating [5, 17] | Giant foxtail plant response rating [5, 18] | Giant foxtail plant response rating [5, 19] | Plant response rating, Giant foxtail [5, 20] | Plant response rating, Giant foxtail [5, 21] | Giant foxtail plant response rating [5, 22] | Giant foxtail plant response rating [5, 23] | Giant foxtail plant response rating [5, 24] | Morningglory plant response rating [6, 17] | Morningglory plant response rating [6, 18] | Morningglory plant response rating [6, 19] | Plant response rating, Morningglory [6, 20] | Plant response rating, Morningglory [6, 21] | Morningglory plant response rating [6, 22] | Morningglory plant response rating [6, 23] | Morningglory plant response rating [6, 24] | Redroot pigweed plant response rating [7, 17] | Redroot pigweed plant response rating [7, 18] | Redroot pigweed plant response rating [7, 19] | Plant response rating, Redroot pigweed [7, 20] | Plant response rating, Redroot pigweed [7, 21] | Redroot pigweed plant response rating [7, 22] | Redroot pigweed plant response rating [7, 23] | Redroot pigweed plant response rating [7, 24] | Rape plant response rating [8, 17] | Rape plant response rating [8, 18] | Rape plant response rating [8, 19] | Plant response rating, Rape [8, 20] | Plant response rating, Rape [8, 21] | Rape plant response rating [8, 22] | Rape plant response rating [8, 23] | Rape plant response rating [8, 24] | Soybean plant response rating [9, 17] | Soybean plant response rating [9, 18] | Soybean plant response rating [9, 19] | Plant response rating, Soybean [9, 20] | Plant response rating, Soybean [9, 21] | Soybean plant response rating [9, 22] | Soybean plant response rating [9, 23] | Soybean plant response rating [9, 24] | Sugarbeets plant response rating [10, 17] | Sugarbeets plant response rating [10, 18] | Sugarbeets plant response rating [10, 19] | Plant response rating, Sugarbeets [10, 20] | Plant response rating, Sugarbeets [10, 21] | Sugarbeets plant response rating [10, 22] | Sugarbeets plant response rating [10, 23] | Sugarbeets plant response rating [10, 24] | Wild oats plant response rating [11, 17] | Wild oats plant response rating [11, 18] | Wild oats plant response rating [11, 19] | Plant response rating, Wild oats [11, 20] | Plant response rating, Wild oats [11, 21] | Wild oats plant response rating [11, 22] | Wild oats plant response rating [11, 23] | Wild oats plant response rating [11, 24] | Nutsedge plant response rating [12, 17] | Nutsedge plant response rating [12, 18] | Nutsedge plant response rating [12, 19] | Plant response rating, Nutsedge [12, 20] | Plant response rating, Nutsedge [12, 21] | Nutsedge plant response rating [12, 22] | Nutsedge plant response rating [12, 23] | Nutsedge plant response rating [12, 24] | Rice plant response rating [13, 17] | Rice plant response rating [13, 25] | Rice plant response rating [13, 26] | Rice plant response rating [13, 27] | S. Flatsedge plant response rating [14, 17] | S. Flatsedge plant response rating [14, 25] | S. Flatsedge plant response rating [14, 26] | S. Flatsedge plant response rating [14, 27] | Ducksalad plant response rating [15, 17] | Ducksalad plant response rating [15, 25] | Ducksalad plant response rating [15, 26] | Ducksalad plant response rating [15, 27] | Barnyardgrass plant response rating [16, 17] | Barnyardgrass plant response rating [16, 25] | Barnyardgrass plant response rating [16, 26] | Barnyardgrass plant response rating [16, 27]
